Laboratory results from patent publication US20260085062A1, “NOVEL COMPOUNDS AS CK2 INHIBITORS” (Cambridge Enterprise Limited, priority 2022, published 2026).
pIC50: −log10 of the molar value.

How the values were obtained:
[1] = target: T1, intracellular CK2α (Homo sapiens, UniProt P19784); experiment: Cell-based NanoBRET assay for inhibitor binding to intracellular CK2α; settings: HCT116 cells transiently transfected with CSNK2A2-NanoLuc fusion vector; Tracer K-5; 2 h; read-out: Assay 3: NanoBRET ™ assay for binding to intracellular CK2α
T1 construct: host or cells: HCT116 (ATCC CCL-247)
Procedure: This assay used the NanoBRET™ System (Promega), an energy transfer technique designed to measure molecular proximity in living cells. The assay measured the apparent affinity of test compounds by competitive displacement of a NanoBRET™ tracer reversibly bound to a NanoLucR luciferase CK2α fusion protein in cells. A fixed concentration of tracer was added to cells expressing the desired NanoLucR-CK2α fusion protein to generate a BRET reporter complex. […] Donor emission wavelength (450 nm) and acceptor emission wavelength (610 nm or 630 nm) were measured on the Envision (Perkin-Elmer) and BRET ratio calculated for data analysis: BRET Ratio=(Acceptorsample/Donorsample)×1,000. • 7.

[2] = target: T2, CLK2 (Homo sapiens, UniProt P49760); experiment: Biochemical assay for inhibitors of CLK2 kinase activity (ADP-Glo); settings: 20 nM CLK2, 50 μM peptide substrate, 100 μM ATP, read-out: Assay 2: CLK2 Enzyme IC50
T2 construct: purchased Carna Biosciences 04-127
Procedure: The inhibitory activity of putative kinase inhibitors and the potency of selected compounds were determined using ADP-GloTM assay. The kinase reaction was performed in the presence of excess peptide substrate and ATP at a concentration equivalent to Km. Upon termination of the kinase reaction, remaining ATP was depleted leaving only ADP reaction product, which was converted back to ATP with a coupled luciferin/luciferase reaction. The luminescent output from the coupled reaction was quantified and correlated with the kinase activity. […] The assay was conducted as follows: • 1. […] After 120 minutes, the reaction was stopped by addition of 5 pl ADP-Glo reagent (Promega V9102) and the plate incubated at RT for a further 60 minutes. • 5. 10 μL of Kinase Detection reagent (Promega V9102) was added to assay plate and incubated for a further 30 minutes prior to reading luminescence on an Envision (Perkin-Elmer). Data was analysed to calculate compound IC50and Ki as follows: • 1. […] Morrison Ki was determined using Morrison Ki equation (XL-fit).

[3] = target: T3, CK2α (Homo sapiens, UniProt P68400); experiment: Biochemical assay for inhibitors of CK2α kinase activity (ADP-Glo); settings: 0.2 nM CK2α, 50 μM peptide substrate, 15 μM ATP, read-out: Assay 1: CK2α Enzyme IC50
T3 construct: CK2α (residues 2-329) was produced in Escherichia coli BL21 (DE3) for kinase activity screening; His6 (N, cleaved yes); made in house; host or cells: Escherichia coli BL21 (DE3)
T3 sequence (P68400 2-329): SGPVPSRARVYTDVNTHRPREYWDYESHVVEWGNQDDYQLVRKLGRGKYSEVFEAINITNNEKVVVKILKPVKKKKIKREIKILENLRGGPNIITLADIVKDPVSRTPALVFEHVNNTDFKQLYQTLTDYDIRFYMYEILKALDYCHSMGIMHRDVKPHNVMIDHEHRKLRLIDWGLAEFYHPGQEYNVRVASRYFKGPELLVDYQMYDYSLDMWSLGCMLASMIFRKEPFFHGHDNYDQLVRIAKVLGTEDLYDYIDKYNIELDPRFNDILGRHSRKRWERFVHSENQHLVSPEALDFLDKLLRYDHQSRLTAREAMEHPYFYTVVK
Procedure: The inhibitory activity of putative kinase inhibitors and the potency of selected compounds were determined using ADP-Glo™ assay. The kinase reaction was performed in the presence of excess peptide substrate and ATP at a concentration equivalent to Km. Upon termination of the kinase reaction, remaining ATP was depleted leaving only ADP reaction product, which was converted back to ATP with a coupled luciferin/luciferase reaction. The luminescent output from the coupled reaction was quantified and correlated with the kinase activity. […] Single colonies of the cells were grown in 6×1 L of 2×TY with 100 μg/mL ampicillin at 37° C. […] The cells were incubated overnight at 25° C. then harvested by centrifugation at 4,000 g for 20 minutes. The cell pellets were suspended in 20 mM Tris, 500 mM NaCl, pH 8.0 and lysed using a high pressure homogenizer. Protease inhibitor cocktail tablets (one tablet per 50 mL extract; Roche Diagnostics) and DNase I were then added. The crude cell extract was then centrifuged at 10,000 g for 45 minutes, the supernatant was filtered with a 0.22 μm filter. The soluble supernatant was applied on a Ni Sepharose Fast Flow6 column at pH 8.0, washed and eluted in 20 mM Tris pH 8.0, 500 mM NaCl, 200 mM imidazole. […] The cleaved protein was further purified on a Sepharose Q HP anion-exchange column and the main peak fraction from this column was further purified by gel filtration on a Superdex 75 16/60 HiPrep column equilibrated with Tris 20 mM, pH 8.0, 500 mM NaCl. Pure protein was concentrated to 15 mg/mL and flash frozen in liquid nitrogen. […] The assay was conducted as follows: • 1. […] After 120 minutes, the reaction was stopped by addition of 5 pl ADP-Glo reagent (Promega V9102) and the plate incubated at RT for a further 60 minutes. • 5. 10 μL of Kinase Detection reagent (Promega V9102) was added to assay plate and incubated for a further 30 minutes prior to reading luminescence on an Envision (Perkin-Elmer). Data was analysed to calculate compound IC50and Ki as follows: • 1. […] Percent activity was calculated for each well using: (Test well reading−MEAN100%inhibition control wells)/(MEAN0% inhibition control wells−MEAN100%inhibition control wells). • 5. Morrison Ki was determined using Morrison Ki equation (XL-fit).

T2 sequence (P49760 whole entry): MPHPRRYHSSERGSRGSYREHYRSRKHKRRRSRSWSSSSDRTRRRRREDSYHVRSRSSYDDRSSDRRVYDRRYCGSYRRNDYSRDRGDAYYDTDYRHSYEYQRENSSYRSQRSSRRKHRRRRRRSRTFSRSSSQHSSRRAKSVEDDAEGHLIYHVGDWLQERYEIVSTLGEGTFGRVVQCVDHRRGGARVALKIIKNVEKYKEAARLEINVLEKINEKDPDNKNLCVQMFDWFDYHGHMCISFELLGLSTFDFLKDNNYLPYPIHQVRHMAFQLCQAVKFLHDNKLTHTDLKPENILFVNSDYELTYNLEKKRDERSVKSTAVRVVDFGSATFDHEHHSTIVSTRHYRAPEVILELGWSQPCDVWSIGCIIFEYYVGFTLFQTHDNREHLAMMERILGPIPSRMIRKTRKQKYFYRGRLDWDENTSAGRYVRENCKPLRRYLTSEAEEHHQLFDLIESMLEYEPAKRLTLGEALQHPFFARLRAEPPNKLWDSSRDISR
T1 sequence (P19784 whole entry, the tested form may be a part): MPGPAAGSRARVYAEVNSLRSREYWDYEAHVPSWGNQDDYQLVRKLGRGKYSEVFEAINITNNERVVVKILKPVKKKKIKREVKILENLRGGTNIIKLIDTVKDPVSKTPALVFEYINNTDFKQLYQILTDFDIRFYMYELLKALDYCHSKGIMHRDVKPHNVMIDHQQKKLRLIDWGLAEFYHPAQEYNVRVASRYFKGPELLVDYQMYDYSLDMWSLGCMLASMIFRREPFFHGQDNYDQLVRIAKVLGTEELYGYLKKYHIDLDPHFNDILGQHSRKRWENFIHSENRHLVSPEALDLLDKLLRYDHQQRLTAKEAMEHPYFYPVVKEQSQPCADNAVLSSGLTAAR

pIC50 [1]	pIC50 [2]	pIC50 [3]	SMILES
4.57	5.18	6.66	O=C(CCNCc1ccc(OC(F)(F)F)c(Cl)c1)NCCCNc1cccc2[nH]ncc12 [Example 163, N-(3-((1H-indazol-4-yl)amino)propyl)-3-((3-chloro-4-(trifluoromethoxy)benzyl)amino)propanamide]
5.60	5.83	7.62	Cc1c(-c2ccncc2)cc(NCCCNC(=O)CCNCc2ccc(OC(F)(F)F)c(Cl)c2)c2cn[nH]c12 [Example 178, 3-((3-chloro-4-(trifluoromethoxy)benzyl)amino)-N-(3-((7-methyl-6-(pyridin-4-yl)-1H-indazol-4-yl)amino)propyl)propanamide]
7.03	7.74	9.36	O=C(CCNCc1ccc(-c2ccccc2)c(Cl)c1)NCCCNc1cc(-c2cn[nH]n2)cc2[nH]ncc12 [Example 25, N-(3-((6-(2H-1,2,3-triazol-4-yl)-1H-indazol-4-yl)amino)propyl)-3-(((2-chloro-[1,1′-biphenyl]-4-yl)methyl)amino)propanamid]
–	4.52	6.67	O=C(O)c1cc(NCCCCNCCCCNCc2ccc(-c3ccccc3)c(Cl)c2)c2cn[nH]c2c1 [Example 60, 4-((4-((4-(((2-chloro-[1,1′-biphenyl]-4-yl)methyl)amino)butyl)amino)butyl)amino)-1H-indazole-6-carboxylic acid]
5.86	7.31	8.86	Cn1c(CNCCC(=O)NCCCNc2cc(-n3cnnc3)cc3[nH]ncc23)cc2ccc(Cl)cc21 [Example 36, N-(3-((6-(4H-1,2,4-triazol-4-yl)-1H-indazol-4-yl)amino)propyl)-3-(((6-chloro-1-methyl-1H-indol-2-yl)methyl)amino)propanamide]

Second part, the molecule before the results:

SMILES	pIC50 [1]	pIC50 [2]	pIC50 [3]
c1cc2[nH]c(CNCCCCOC3CN(c4cc(-n5cnnc5)cc5[nH]ncc45)C3)cc2cc1OC1CCC1 [Example 124, 4-((1-(6-(4H-1,2,4-triazol-4-yl)-1H-indazol-4-yl)azetidin-3-yl)oxy)-N-((5-cyclobutoxy-1H-indol-2-yl)methyl)butan-1-amine]	5.70	6.87	8.13
C[C@@H](CCCOCCNc1cc(-c2cnns2)cc2[nH]ncc12)NCc1cc(CO)cc(OC(F)(F)F)c1 [Example 207, (S)-(3-(((5-(2-((6-(1,2,3-thiadiazol-5-yl)-1H-indazol-4-yl)amino)ethoxy)pentan-2-yl)amino)methyl)-5-(trifluoromethoxy)phenyl)methanol]	8.06	6.62	8.77
Cc1cc(CC#N)cc(CNCCCCOC2CN(c3cc(-c4ccnnc4)cc4[nH]ncc34)C2)c1 [Example 115, 2-(3-methyl-5-(((4-((1-(6-(pyridazin-4-yl)-1H-indazol-4-yl)azetidin-3-yl)oxy)butyl)amino)methyl)phenyl)acetonitrile]	5.00	5.19	6.94
OCc1cc(CNCCCCOC2CN(c3cc(-n4cnnc4)cc4[nH]ncc34)C2)cc(C(F)(F)F)c1 [Example 104, (3-(((4-((1-(6-(4H-1,2,4-triazol-4-yl)-1H-indazol-4-yl)azetidin-3-yl)oxy)butyl)amino)methyl)-5-(trifluoromethyl)phenyl)methanol]	4.83	6.58	7.19
OCCOc1cc(CNCCCCOCCNc2cccc3[nH]ncc23)cc(OC(F)(F)F)c1 [Example 202, 2-(3-(((4-(2-((1H-indazol-4-yl)amino)ethoxy)butyl)amino)methyl)-5-(trifluoromethoxy)phenoxy)ethan-1-ol]	< 5.52	4.63	6.67
FC(F)(F)Oc1ccc(CNCCCCOCCOc2cc(-c3ccnnc3)cc3[nH]nnc23)cc1Cl [Example 102, N-(3-chloro-4-(trifluoromethoxy)benzyl)-4-(2-((6-(pyridazin-4-yl)-1H-benzo[d][1,2,3]triazol-4-yl)oxy)ethoxy)butan-1-amine]	< 4.30	4.37	6.41
